# Results taken from ChEMBL document CHEMBL1140522, “Peptidomimetic inhibitors of farnesyltransferase with high in vitro activity and significant cellular potency” (Bioorg Med Chem Lett, 2007).
# Calls of active or inactive are those of the source. The calls are words filed in the database; no cut-off is given here.
# Experiments:
# [1] = Inhibition of farnesyl transferase; set-up: species or system Homo sapiens
# Homo sapiens [2] = organism: Homo sapiens; experiment: Effect on FTase mediated Ras farnesylation in human aortic smooth muscle cells at 250 uM after 72 hrs by Western blot analysis
# [3] = Antiproliferative effect on human aortic smooth muscle cells; type: functional
# Homo sapiens [4] = organism: Homo sapiens; experiment: Effect on FTase mediated Ras farnesylation in human aortic smooth muscle cells at 2 uM after 72 hrs by Western blot analysis
SMILES,IC50 [1] [µM],further results
COc1ccccc1-c1cc(OC[C@H]2COc3ncccc3O2)ccc1C(=O)N[C@H](CCSC)C(=O)O,> 1000,–
COc1ccccc1-c1c(CN[C@@H](CCSC)C(=O)O)cccc1NC(=O)C[C@@H]1COc2ncccc2O1 (mixture of isomers),151,–
CSCC[C@@H](NC(=O)c1ccc(OC[C@@H]2COc3ncccc3O2)cc1-c1ccccc1C)C(=O)O,0.053,Activity (Homo sapiens [2]): Active; IC50 [3]: 16.8 µM
COc1ccccc1-c1cc(OC[C@@H]2COc3ncccc3O2)ccc1C(=O)N[C@H](CCSC)C(=O)O,0.112,–
CSCC[C@H](NCc1cccc(NC(=O)C[C@@H]2COc3ncccc3O2)c1-c1ccccc1C)C(=O)O (mixture of isomers),16,–
COc1ccccc1-c1c(CN[C@H](CCSC)C(=O)O)cccc1NC(=O)C[C@@H]1COc2ncccc2O1,> 1000,–
CCC(C)(C)C(=O)O[C@H]1C[C@@H](C)C=C2C=C[C@H](C)[C@H](CC[C@@H]3C[C@@H](O)CC(=O)O3)[C@H]21,–,Activity (Homo sapiens [4]): Active
COc1ccccc1-c1cc(OC[C@@H]2COc3ncccc3O2)ccc1C(=O)N[C@@H](CCSC)C(=O)O (mixture of isomers),0.055,–
CSCC[C@@H](NCc1cccc(NC(=O)C[C@H]2COc3ncccc3O2)c1-c1ccccc1C)C(=O)O (mixture of isomers),> 1000,–
CSCC[C@@H](NCc1cccc(NC(=O)C[C@@H]2COc3ncccc3O2)c1-c1ccccc1C)C(=O)O,> 1000,–
COc1ccccc1-c1c(CN[C@@H](CCSC)C(=O)O)cccc1NC(=O)C[C@H]1COc2ncccc2O1,302,–
CSCC[C@@H](NC(=O)c1ccc(OC[C@H]2COc3ncccc3O2)cc1-c1ccccc1C)C(=O)O,0.075,IC50 [3]: 238 µM
CSCC[C@H](NC(=O)c1ccc(OC[C@@H]2COc3ncccc3O2)cc1-c1ccccc1C)C(=O)O,0.045,Activity (Homo sapiens [2]): Active; IC50 [3]: 58.8 µM
COc1ccccc1-c1c(CN[C@H](CCSC)C(=O)O)cccc1NC(=O)C[C@H]1COc2ncccc2O1 (mixture of isomers),843,–
COc1ccccc1-c1cc(OC[C@H]2COc3ncccc3O2)ccc1C(=O)N[C@@H](CCSC)C(=O)O,0.053,–
CSCC[C@H](NCc1cccc(NC(=O)C[C@H]2COc3ncccc3O2)c1-c1ccccc1C)C(=O)O,12,–
CSCC[C@H](NC(=O)c1ccc(OC[C@H]2COc3ncccc3O2)cc1-c1ccccc1C)C(=O)O,0.05,IC50 [3]: 158 µM
